Source: the supplement of paper PMC10307832

Columns and labels:
Test in all cases: relative viability (nuclei count vs DMSO), 5 days (fraction); higher = more cells survive
HCC-827 = system: HCC-827
Summary of the method: (§1)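 For relative viability, nuclei counts in treated wells were divided by those in vehicle wells. Lung cancer cell lines had been pin-tool dosed in 1536-well plates the day after seeding and cultured for 5 days, then fixed and stained in one step (final 0.05% Triton X-100, 1% formaldehyde, 1 ug/ml Hoechst) and imaged at 4×. Doses were one drug alone or a fixed anchor-drug dose plus five library-drug doses (not always all listed) in √10 steps, and values are duplicate-plate medians.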

NCI-H2405 = system: NCI-H2405
Summary of the method: as §1

LU99A = system: LU99A
Summary of the method: as §1

CAL-12T = system: CAL-12T
Summary of the method: as §1

LXF-289 = system: LXF-289
Summary of the method: as §1

HCC-15 = system: HCC-15
Summary of the method: as §1

NCI-H1651 = system: NCI-H1651
Summary of the method: as §1

BEN = system: BEN
Summary of the method: as §1

NCI-H2228 = system: NCI-H2228
Summary of the method: as §1

NCI-H1437 = system: NCI-H1437
Summary of the method: as §1

COR-L 105 = system: COR-L 105
Summary of the method: as §1

NCI-H1792 = system: NCI-H1792
Summary of the method: as §1

HARA = system: HARA
Summary of the method: as §1

LCLC-103H = system: LCLC-103H
Summary of the method: as §1

H3255 = system: H3255
Summary of the method: as §1

RERF-LC-KJ = system: RERF-LC-KJ
Summary of the method: as §1

201T = system: 201T
Summary of the method: as §1

NCI-H23 = system: NCI-H23
Summary of the method: as §1

UMC-11 = system: UMC-11
Summary of the method: as §1

LK-2 = system: LK-2
Summary of the method: as §1

LC-2-ad = system: LC-2-ad
Summary of the method: as §1

NCI-H322M = system: NCI-H322M
Summary of the method: as §1

NCI-H2085 = system: NCI-H2085
Summary of the method: as §1

## O=C(O)CCCCC(CCSCc1ccccc1)SCc1ccccc1 (stereo not given) [CPI-613] + CS(=O)(=O)N1CCN(Cc2cc3nc(-c4cccc5[nH]ncc45)nc(N4CCOCC4)c3s2)CC1 [Pictilisib] (partner 1 µM)
HCC-827; first compound 5 µM
  relative viability: 0.94
HCC-827; first compound 15.81 µM
  relative viability: 0.964
HCC-827; first compound 50 µM
  relative viability: 0.887
HCC-827; first compound 158.11 µM
  relative viability: 0.833
HCC-827; first compound 500 µM
  relative viability: 0.79
NCI-H2405; first compound 5 µM
  relative viability: 0.493
NCI-H2405; first compound 15.81 µM
  relative viability: 0.331
NCI-H2405; first compound 50 µM
  relative viability: 0.425
NCI-H2405; first compound 158.11 µM
  relative viability: 0.388
NCI-H2405; first compound 500 µM
  relative viability: 0.421
LU99A; first compound 5 µM
  relative viability: 0.289
LU99A; first compound 15.81 µM
  relative viability: 0.322
LU99A; first compound 50 µM
  relative viability: 0.339
LU99A; first compound 158.11 µM
  relative viability: 0.256
LU99A; first compound 500 µM
  relative viability: 0.0798
CAL-12T; first compound 5 µM
  relative viability: 0.255
CAL-12T; first compound 15.81 µM
  relative viability: 0.393
CAL-12T; first compound 50 µM
  relative viability: 0.453
CAL-12T; first compound 158.11 µM
  relative viability: 0.385
CAL-12T; first compound 500 µM
  relative viability: 0.102
LXF-289; first compound 5 µM
  relative viability: 0.716
LXF-289; first compound 15.81 µM
  relative viability: 0.752
LXF-289; first compound 50 µM
  relative viability: 0.728
LXF-289; first compound 158.11 µM
  relative viability: 0.479
LXF-289; first compound 500 µM
  relative viability: 0.0147
HCC-15; first compound 5 µM
  relative viability: 0.604
HCC-15; first compound 15.81 µM
  relative viability: 0.664
HCC-15; first compound 50 µM
  relative viability: 0.603
HCC-15; first compound 158.11 µM
  relative viability: 0.629
HCC-15; first compound 500 µM
  relative viability: 0.238
NCI-H1651; first compound 5 µM
  relative viability: 0.591
NCI-H1651; first compound 15.81 µM
  relative viability: 0.504
NCI-H1651; first compound 50 µM
  relative viability: 0.572
NCI-H1651; first compound 158.11 µM
  relative viability: 0.331
NCI-H1651; first compound 500 µM
  relative viability: 0.0986
BEN; first compound 5 µM
  relative viability: 0.527
BEN; first compound 15.81 µM
  relative viability: 0.423
BEN; first compound 50 µM
  relative viability: 0.503
BEN; first compound 158.11 µM
  relative viability: 0.452
BEN; first compound 500 µM
  relative viability: 0.495
NCI-H2228; first compound 5 µM
  relative viability: 0.429
NCI-H2228; first compound 15.81 µM
  relative viability: 0.382
NCI-H2228; first compound 50 µM
  relative viability: 0.596
NCI-H2228; first compound 158.11 µM
  relative viability: 0.374
NCI-H2228; first compound 500 µM
  relative viability: 0.0181
NCI-H1437; first compound 5 µM
  relative viability: 0.433
NCI-H1437; first compound 15.81 µM
  relative viability: 0.286
NCI-H1437; first compound 50 µM
  relative viability: 0.435
NCI-H1437; first compound 158.11 µM
  relative viability: 0.181
NCI-H1437; first compound 500 µM
  relative viability: 0.0176
COR-L 105; first compound 5 µM
  relative viability: 0.399
COR-L 105; first compound 15.81 µM
  relative viability: 0.377
COR-L 105; first compound 50 µM
  relative viability: 0.38
COR-L 105; first compound 158.11 µM
  relative viability: 0.328
COR-L 105; first compound 500 µM
  relative viability: 0.288
NCI-H1792; first compound 5 µM
  relative viability: 0.29
NCI-H1792; first compound 15.81 µM
  relative viability: 0.229
NCI-H1792; first compound 50 µM
  relative viability: 0.272
NCI-H1792; first compound 158.11 µM
  relative viability: 0.23
NCI-H1792; first compound 500 µM
  relative viability: 0.207
HARA; first compound 5 µM
  relative viability: 0.474
HARA; first compound 15.81 µM
  relative viability: 0.409
HARA; first compound 50 µM
  relative viability: 0.281
HARA; first compound 158.11 µM
  relative viability: 0.242
HARA; first compound 500 µM
  relative viability: 0.084
LCLC-103H; first compound 5 µM
  relative viability: 0.55
LCLC-103H; first compound 15.81 µM
  relative viability: 0.578
LCLC-103H; first compound 50 µM
  relative viability: 0.581
LCLC-103H; first compound 158.11 µM
  relative viability: 0.539
LCLC-103H; first compound 500 µM
  relative viability: 0.653
H3255; first compound 5 µM
  relative viability: 0.512
H3255; first compound 15.81 µM
  relative viability: 0.462
H3255; first compound 50 µM
  relative viability: 0.452
H3255; first compound 158.11 µM
  relative viability: 0.472
H3255; first compound 500 µM
  relative viability: 0.43
RERF-LC-KJ; first compound 5 µM
  relative viability: 0.455
RERF-LC-KJ; first compound 15.81 µM
  relative viability: 0.496
RERF-LC-KJ; first compound 50 µM
  relative viability: 0.605
RERF-LC-KJ; first compound 158.11 µM
  relative viability: 0.558
RERF-LC-KJ; first compound 500 µM
  relative viability: 0.438
201T; first compound 5 µM
  relative viability: 0.722
201T; first compound 15.81 µM
  relative viability: 0.654
201T; first compound 50 µM
  relative viability: 0.667
201T; first compound 158.11 µM
  relative viability: 0.665
201T; first compound 500 µM
  relative viability: 0.647
NCI-H23; first compound 5 µM
  relative viability: 0.478
NCI-H23; first compound 15.81 µM
  relative viability: 0.455
NCI-H23; first compound 50 µM
  relative viability: 0.457
NCI-H23; first compound 158.11 µM
  relative viability: 0.153
NCI-H23; first compound 500 µM
  relative viability: 0.009
UMC-11; first compound 5 µM
  relative viability: 0.804
UMC-11; first compound 15.81 µM
  relative viability: 0.698
UMC-11; first compound 50 µM
  relative viability: 0.496
UMC-11; first compound 158.11 µM
  relative viability: 0.642
UMC-11; first compound 500 µM
  relative viability: 0.104
LK-2; first compound 5 µM
  relative viability: 0.583
LK-2; first compound 15.81 µM
  relative viability: 0.494
LK-2; first compound 50 µM
  relative viability: 0.535
LK-2; first compound 158.11 µM
  relative viability: 0.554
LK-2; first compound 500 µM
  relative viability: 0.472
LC-2-ad; first compound 5 µM
  relative viability: 0.455
LC-2-ad; first compound 15.81 µM
  relative viability: 0.427
LC-2-ad; first compound 50 µM
  relative viability: 0.473
LC-2-ad; first compound 158.11 µM
  relative viability: 0.211
LC-2-ad; first compound 500 µM
  relative viability: 0.0075
NCI-H322M; first compound 5 µM
  relative viability: 0.511
NCI-H322M; first compound 15.81 µM
  relative viability: 0.426
NCI-H322M; first compound 50 µM
  relative viability: 0.496
NCI-H322M; first compound 158.11 µM
  relative viability: 0.469
NCI-H322M; first compound 500 µM
  relative viability: 0.53
NCI-H2085; first compound 5 µM
  relative viability: 0.505
NCI-H2085; first compound 15.81 µM
  relative viability: 0.492
NCI-H2085; first compound 50 µM
  relative viability: 0.4
NCI-H2085; first compound 158.11 µM
  relative viability: 0.383
NCI-H2085; first compound 500 µM
  relative viability: 0.343
